In the supplement of paper PMC3974653:
Where a name gives a salt, the structure may show the parent alone.

The compounds below were run on MTT (mouse pheochromocytoma) (assay: IC50 of cell viability (ATP content)). Conditions: (24 or 48 h).
Method in brief: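 Cells of the MTT mouse pheochromocytoma line, 5 µl per well at 200,000 cells/ml, were grown overnight at 37°C, 5% CO2 in white 1536-well plates with DMEM, 5% FBS and 1% horse serum. Pintool transfer then delivered 23 nl of library compound in DMSO, giving 8 final concentrations from 0.5 nM to 46 µM, for an exposure of 24 or 48 hrs. Luminescence from CellTiter-Glo was read after 15 minutes and referenced to positive-control wells (100%) and DMSO wells (0%). IC50 was calculated with a four-parameter logistic fit.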

Q: For CCOC(=O)CN[C@@H](C(=O)N1CC[C@H]1C(=O)NCc1ccc(/C(N)=N/O)cc1)C1CCCCC1 [Ximelagatran], which “IC50 of cell viability” value is on record?
A: > 46 µM

Q: Cc1cccc(C)c1NC(=O)c1cc([S+](N)(=O)[O-])c(Cl)cc1O [Xipamide] was tested. Which “IC50 of cell viability” value did it give?
A: > 46 µM

Q: How did the “IC50 of cell viability” value turn out when CC1=CC(=CC(=C1C\C2=N\CCN2)C)C(C)(C)C [Xylometazoline hydrochloride] was run?
A: > 46 µM

Q: Which “IC50 of cell viability” value does the source give for OC1OC[C@@H](O)[C@H](O)[C@@H]1O (stereo partly specified) [Xylose] here?
A: > 46 µM

Q: How did the “IC50 of cell viability” value turn out when COC(=O)[C@@H]1[C@@H]2C[C@H]3c4[nH]c5ccccc5c4CCN3C[C@@H]2CC[C@@H]1O [Yohimbine] was run?
A: > 46 µM

Q: How did the “IC50 of cell viability” value turn out when O.O=C(O)[C@H]1[C@H]2C[C@H]3c4[nH]c5ccccc5c4CCN3C[C@@H]2CC[C@@H]1O [Yohimbinic acid monohydrate] was run?
A: > 46 µM

Q: CC1(CN2CCC(n3c(=O)[nH]c4ccccc43)CC2)OCc2ccccc2-n2cccc21 (stereo unspecified) [ZALDARIDUM] was tested. Which “IC50 of cell viability” value did it give?
A: > 46 µM

Q: O=C(CCC1CCN(Cc2ccccc2)CC1)c1ccc2c(c1)NCCCC2 [ZANAPEZIL FUMARATE] was tested. Which “IC50 of cell viability” value did it give?
A: > 46 µM

Q: How did the “IC50 of cell viability” value turn out when COc1ccc(CCN(C)CCCN2CCc3cc(OC)c(OC)cc3CC2=O)cc1OC [ZATEBRADINUM] was run?
A: > 46 µM

Q: For O=C(O)Cc1ccc(OCCNC[C@H](O)c2ccccc2)cc1 [ZD 2079], which “IC50 of cell viability” value is on record?
A: > 46 µM

Q: Which “IC50 of cell viability” value does the source give for CC1=C(/C=C/C(C)=C\C=C\C(C)=C\C=C\C=C(C)\C=C\C=C(C)\C=C\C2=C(C)C[C@@H](O)CC2(C)C)C(C)(C)C[C@H](O)C1 [ZEAXANTHIN] here?
A: > 46 µM

Q: With C\C1=C\N([C@H]2C[C@H](N=[N+]=[N-])[C@@H](CO)O2)C(=O)NC1=O [ZIDOVUDINE] as the compound, how does the “IC50 of cell viability” value read?
A: > 46 µM

Q: For O=C([O-])c1ccccc1O [ZINC SALICYLATE], which “IC50 of cell viability” value is on record?
A: > 46 µM

Q: CC(CSC(=O)c1ccccc1)C(=O)N1CC(Sc2ccccc2)CC1C(=O)[O-] (stereo unspecified) [ZOFENOPRIL Calcium Salt] was tested. Which “IC50 of cell viability” value did it give?
A: > 46 µM

Q: How did the “IC50 of cell viability” value turn out when C[C@H](CSC(=O)c1ccccc1)C(=O)N1C[C@@H](Sc2ccccc2)C[C@H]1C(=O)O [ZOFENOPRIL] was run?
A: > 46 µM

Q: Which “IC50 of cell viability” value does the source give for CN(C)CCc1c[nH]c2ccc(CC3COC(=O)N3)cc12 (stereo unspecified) [ZOLMITRIPTAN] here?
A: > 46 µM

Q: Which “IC50 of cell viability” value does the source give for Cc1ccc(-c2nc3ccc(C)cn3c2CC(=O)N(C)C)cc1 [ZOLPIDEM] here?
A: > 46 µM

Q: How did the “IC50 of cell viability” value turn out when Cc1cc(CC(=O)O)n(C)c1C(=O)c1ccc(Cl)cc1 [ZOMEPIRAC SODIUM] was run?
A: > 46 µM

Q: For COc1cc(N)c(Cl)cc1C(=O)NC1CN2CCC1CC2 (stereo unspecified) [Zacopride hydrochloride], which “IC50 of cell viability” value is on record?
A: > 46 µM

Q: Which “IC50 of cell viability” value does the source give for COc1cc(C(=O)NS(=O)(=O)c2ccccc2C)ccc1Cc1cn(C)c2ccc(NC(=O)OC3CCCC3)cc12 [Zafirlukast] here?
A: > 46 µM

Q: Which “IC50 of cell viability” value does the source give for CCN(C(C)=O)c1cccc(-c2ccnc3c(C#N)cnn23)c1 [Zaleplon] here?
A: > 46 µM

Q: For C[C@H](C(=O)O)c1ccc2c(c1)CC(=O)c1ccccc1S2 [Zaltoprofen], which “IC50 of cell viability” value is on record?
A: > 46 µM

Q: With c1ccc(C(OC2CCCN(CCc3ccc4c(c3)OCO4)C2)c2ccccc2)cc1 (stereo unspecified) [Zamifenacin fumarate] as the compound, how does the “IC50 of cell viability” value read?
A: > 46 µM

Q: With CC(=O)NC1[C@H]([C@H](O)[C@H](O)CO)OC(C(=O)O)=C[C@H]1NC(=N)N (stereo partly specified) [Zanamivir] as the compound, how does the “IC50 of cell viability” value read?
A: > 46 µM

Q: Oc1cc2cc(CCN3CCN(c4nsc5ccccc45)CC3)c(Cl)cc2[nH]1 [Zaprasidone] was tested. Which “IC50 of cell viability” value did it give?
A: > 46 µM

Q: With CCCOC1=C(C=CC=C1)\C2=N\C(=O)C3=C([NH]N=N3)N2 [Zaprinast] as the compound, how does the “IC50 of cell viability” value read?
A: > 46 µM

Q: With COC1=C(OC(F)F)C=CC(=C1)C/2=N/NC(=O)/C=C2 [Zardaverine] as the compound, how does the “IC50 of cell viability” value read?
A: > 46 µM

Q: For C[C@H]1CCC[C@H](O)CCCCCc2cc(O)cc(O)c2C(=O)O1 [Zearalanol], which “IC50 of cell viability” value is on record?
A: > 46 µM

Q: CN(C)C/C=C(/c1ccc(Br)cc1)c1cccnc1.Cl.Cl [Zimelidine dihydrochloride] was tested. Which “IC50 of cell viability” value did it give?
A: > 46 µM

Q: Which “IC50 of cell viability” value does the source give for Cl.O.O=C1Cc2cc(CCN3CCN(c4nsc5ccccc45)CC3)c(Cl)cc2N1 [Ziprasidone hydrochloride monohydrate] here?
A: > 46 µM

Q: O=P(O)(O)C(O)(Cn1ccnc1)P(=O)(O)O [Zoledronic acid] was tested. Which “IC50 of cell viability” value did it give?
A: > 46 µM

Q: Which “IC50 of cell viability” value does the source give for N[S+](=O)([O-])Cc1noc2ccccc12 [Zonisamide] here?
A: > 46 µM

Q: With CN(C)CCOC1=Cc2ccccc2Sc2ccc(Cl)cc21 [Zotepine] as the compound, how does the “IC50 of cell viability” value read?
A: > 46 µM

Q: OCCN1CCN(CC/C=C2\c3ccccc3Sc3ccc(Cl)cc32)CC1 [Zuclopenthixol hydrochloride] was tested. Which “IC50 of cell viability” value did it give?
A: > 46 µM

Q: N=C(N)NCCCC(NC(=O)C1CCCN1C(=O)C1CSSCC(N)C(=O)NC(Cc2ccc(O)cc2)C(=O)NC(Cc2ccccc2)C(=O)NC(CCC(N)=O)C(=O)NC(CC(N)=O)C(=O)N1)C(=O)NCC(N)=O (stereo unspecified) [[8-Arginine]vasopressin] was tested. Which “IC50 of cell viability” value did it give?
A: > 46 µM

Q: With NCCCCC(NC(=O)C1CCCN1C(=O)C1CSSCC(N)C(=O)NC(Cc2ccc(O)cc2)C(=O)NC(Cc2ccccc2)C(=O)NC(CCC(N)=O)C(=O)NC(CC(N)=O)C(=O)N1)C(=O)NCC(N)=O (stereo unspecified) [[Lys8]-Vasopressin] as the compound, how does the “IC50 of cell viability” value read?
A: > 46 µM

Q: O=C(O)Cc1ccccc1 [a-Toluic acid] was tested. Which “IC50 of cell viability” value did it give?
A: > 46 µM

Q: With OC[C@H]1O[C@@H]2O[C@H]3[C@H](O)[C@@H](O)[C@@H](O[C@H]4[C@H](O)[C@@H](O)[C@@H](O[C@H]5[C@H](O)[C@@H](O)[C@@H](O[C@H]6[C@H](O)[C@@H](O)[C@@H](O[C@H]7[C@H](O)[C@@H](O)[C@@H](O[C@H]1[C@H](O)[C@H]2O)O[C@@H]7CO)O[C@@H]6CO)O[C@@H]5CO)O[C@@H]4CO)O[C@@H]3CO [alpha-Cyclodextrin] as the compound, how does the “IC50 of cell viability” value read?
A: > 46 µM

Q: For O=C(O)CCCCC1CCSS1 (stereo not drawn) [alpha-Lipoic acid], which “IC50 of cell viability” value is on record?
A: > 46 µM

Q: How did the “IC50 of cell viability” value turn out when CC/1=C/CC2CC1C2(C)C (stereo not drawn) [alpha-Pinene] was run?
A: > 46 µM

Q: With C[C@H]1[C@@H]2CC[C@]/3(C)\C=C/C(=O)/C(=C3[C@H]2OC1=O)C [alpha-Santonin] as the compound, how does the “IC50 of cell viability” value read?
A: > 46 µM

Q: With Cc1nnc2n1-c1ccc(Cl)cc1C(c1ccccc1)=NC2 [alprazolam] as the compound, how does the “IC50 of cell viability” value read?
A: > 46 µM

Q: For CCOC(=O)OC(C)OC1=C(C(=O)Nc2ccccn2)N(C)S(=O)(=O)c2ccccc21 (stereo unspecified) [ampiroxicam], which “IC50 of cell viability” value is on record?
A: > 46 µM

Q: For CCc1oc2ccccc2c1C(=O)c1cc(Br)c(O)c(Br)c1 [benzbromarone], which “IC50 of cell viability” value is on record?
A: > 46 µM

Q: How did the “IC50 of cell viability” value turn out when O=C(OCc1ccccc1)c1ccc(O)cc1 [benzyl 4-hydroxybenzoate] was run?
A: > 46 µM

Q: Which “IC50 of cell viability” value does the source give for CC1=C(/C=C/C(C)=C/C=C/C(C)=C/C=C/C=C(C)/C=C/C=C(C)/C=C/C2=C(C)CCCC2(C)C)C(C)(C)CCC1 [beta-CAROTENE] here?
A: > 46 µM
